Laboratory results taken from the supplement of paper PMC10307832.

Columns and labels:
Assay in all cases: relative viability (nuclei count vs DMSO), 5 days (fraction); higher = more cells survive
DM3189 + Palbociclib = compound: C1CN(CCN1)C2=CC=C(C=C2)C3=CN4C(=C(C=N4)C5=CC=NC6=CC=CC=C56)N=C3 [DM3189] + CC(=O)c1c(C)c2cnc(Nc3ccc(N4CCNCC4)cn3)nc2n(C2CCCC2)c1=O [Palbociclib] (partner 0.5 µM)
In short: (§1)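 Lung cancer cell lines were pin-tool dosed in 1536-well plates on the day after seeding, with either a lone drug or a fixed anchor-drug dose plus five library-drug doses (not always all listed) in √10 steps. Nuclei were counted on 4× images after 5 days. Relative viability is the ratio of treated-well to vehicle-well nuclei counts, with each value a median of duplicate plates.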

DM3189 + Tozasertib = compound: C1CN(CCN1)C2=CC=C(C=C2)C3=CN4C(=C(C=N4)C5=CC=NC6=CC=CC=C56)N=C3 [DM3189] + Cc1cc(Nc2cc(N3CCN(C)CC3)nc(Sc3ccc(NC(=O)C4CC4)cc3)n2)n[nH]1 [Tozasertib] (partner 0.1 µM)
In short: as §1

DM3189 + AZD7762 = compound: C1CN(CCN1)C2=CC=C(C=C2)C3=CN4C(=C(C=N4)C5=CC=NC6=CC=CC=C56)N=C3 [DM3189] + NC(=O)Nc1cc(-c2cccc(F)c2)sc1C(=O)N[C@H]1CCCNC1 [AZD7762] (partner 0.2 µM)
In short: as §1

DM3189 + Dasatinib = compound: C1CN(CCN1)C2=CC=C(C=C2)C3=CN4C(=C(C=N4)C5=CC=NC6=CC=CC=C56)N=C3 [DM3189] + Cc1nc(Nc2ncc(C(=O)Nc3c(C)cccc3Cl)s2)cc(N2CCN(CCO)CC2)n1 [Dasatinib] (partner 0.075 µM)
In short: as §1

DM3189 + Trametinib = compound: C1CN(CCN1)C2=CC=C(C=C2)C3=CN4C(=C(C=N4)C5=CC=NC6=CC=CC=C56)N=C3 [DM3189] + CC(=O)Nc1cccc(-n2c(=O)n(C3CC3)c(=O)c3c(Nc4ccc(I)cc4F)n(C)c(=O)c(C)c32)c1 [Trametinib] (partner 0.02 µM)
In short: as §1

| Cell Line | relative viability (DM3189 + Palbociclib; first compound 0.08 µM) | relative viability (DM3189 + Palbociclib; first compound 0.253 µM) | relative viability (DM3189 + Palbociclib; first compound 0.8 µM) | relative viability (DM3189 + Palbociclib; first compound 2.53 µM) | relative viability (DM3189 + Tozasertib; first compound 0.08 µM) | relative viability (DM3189 + Tozasertib; first compound 0.253 µM) | relative viability (DM3189 + Tozasertib; first compound 0.8 µM) | relative viability (DM3189 + Tozasertib; first compound 2.53 µM) | relative viability (DM3189 + AZD7762; first compound 0.08 µM) | relative viability (DM3189 + AZD7762; first compound 0.253 µM) | relative viability (DM3189 + AZD7762; first compound 0.8 µM) | relative viability (DM3189 + AZD7762; first compound 2.53 µM) | relative viability (DM3189 + Dasatinib; first compound 0.08 µM) | relative viability (DM3189 + Dasatinib; first compound 0.253 µM) | relative viability (DM3189 + Dasatinib; first compound 0.8 µM) | relative viability (DM3189 + Dasatinib; first compound 2.53 µM) | relative viability (DM3189 + Trametinib; first compound 0.08 µM) | relative viability (DM3189 + Trametinib; first compound 0.253 µM) | relative viability (DM3189 + Trametinib; first compound 0.8 µM) | relative viability (DM3189 + Trametinib; first compound 2.53 µM) |
| --- | --- | --- | --- | --- | --- | --- | --- | --- | --- | --- | --- | --- | --- | --- | --- | --- | --- | --- | --- | --- |
| HCC-827 | 0.539 | 0.437 | 0.452 | 0.428 | 0.376 | 0.36 | 0.354 | 0.377 | 0.207 | 0.194 | 0.205 | 0.195 | 0.378 | 0.276 | 0.317 | 0.378 | 0.492 | 0.535 | 0.502 | 0.54 |
| HCC-78 | 0.479 | 0.395 | 0.423 | 0.586 | 0.263 | 0.464 | 0.411 | 0.465 | 0.644 | 0.546 | 0.497 | 0.531 | 0.362 | 0.495 | 0.393 | 0.381 | 0.64 | 0.588 | 0.541 | 0.624 |
| NCI-H1993 | 0.779 | 0.809 | 0.571 | 0.736 | 0.58 | 0.584 | 0.554 | 0.637 | 0.824 | 0.776 | 0.653 | 0.643 | 0.657 | 0.552 | 0.505 | 0.504 | 0.504 | 0.501 | 0.641 | 0.486 |
| NCI-H1975 | 0.697 | 0.57 | 0.379 | 0.333 | 0.652 | 0.693 | 0.649 | 0.541 | 0.757 | 0.682 | 0.522 | 0.625 | 0.421 | 0.357 | 0.314 | 0.332 | 0.37 | 0.367 | 0.316 | 0.299 |
| CAL-12T | 0.713 | 0.335 | 0.451 | 0.352 | 0.318 | 0.234 | 0.327 | 0.403 | 0.533 | 0.629 | 0.585 | 0.684 | 0.546 | 0.469 | 0.487 | 0.571 | 0.405 | 0.339 | 0.384 | 0.488 |
